What was measured:
astrocytes = experiment: Survival of astrocytes in primary cortical neuron culture intoxicated with Aβ 1-42 peptide (GFAP staining); assay type: cell-based, rat; conditions: Aβ 1-42 20 µM, 24 h (Figure 3)
Source text: (§1) Le but de cette étude est d'évaluer les effets de l'acide léontopodique B1 sur des neurones corticaux primaires de rat, intoxiqués par le peptide Aβ selon le modèle in vitro de la maladie d'Alzheimer décrit dans Callizot et al., 2013 (Callizot N. et al., Operational dissection of β-amyloid cytopathic effects on cultured neurons. J Neurosci Res. 2013, 91: 706-16). La survie des neurones et des astrocytes ainsi que l'intégrité du réseau de neurites sont évaluées.
(§2) Des neurones corticaux de rat sont cultivés comme décrit dans Singer et al., 1999 (Singer C. et al., Mitogen-activated protein kinase pathway mediates estrogen neuroprotection after glutamate toxicity in primary cortical neurons. J Neurosci. 1999, 19: 2455-2463) et Callizot et al. (2013).
(§3) En résumé, des rats femelles gravides sont tuées par dislocation cervicale après 15 jours de gestation. Les fœtus sont collectés et immédiatement placés dans un milieu glacé L15 Leibovitz (Pan Biotech, Batch: 8810315) additionné de 2% pénicilline (10,000 U/mL) et d'une solution de streptomycine (10 mg/mL) (PS; Pan Biotech, batch: 1451013) et 1% de albumine de sérum de bovin (BSA; Pan Biotech, batch: K180713). Le cortex est traité pendant 20 min à 37°C avec une solution de trypsine- EDTA (Pan Biotech, Batch: 3330914) à une concentration finale de 0,05% trypsine et 0,02% EDTA. […]

[1] = test system: neurones corticaux primaires de rat; experiment: Survival of primary cortical neurons intoxicated with Aβ 1-42 peptide (MAP-2 staining); assay type: cell-based; conditions: pre-incubated 1 h before Aβ 1-42 20 µM
Source text: as §1, §2, §3

[2] = test system: astrocytes sains (non traités par le peptide Aβ 1-42); experiment: Proliferation of pure healthy astrocytes (MTT test, CellTiter 96 Aqueous One Solution); assay type: cell-based, rat (Wistar); conditions: 4 days incubation, no Aβ 1-42 (Figure 4)
Method: En résumé, le cerveau entier d'un embryon âgé de 15 jours de rat (Wistar) est prélevé. Le cerveau entier est dissocié par trypsinisation. Les cellules sont suspendues dans un milieu de culture du milieu DMEM (Dulbecco's modified Eagle's medium) complémenté avec 2% de pénicilline (10,000 U/mL) et d'une solution de streptomycine (10 mg/mL), et 10% de sérum de veau fœtal (FCS). Les cellules sont ensemencées à une densité de 267 000 cellules par cm^2 dans un flacon de culture. Au stade de la confluence cellulaire, le flacon est secoué pendant 3 heures. Le surnageant de la culture cellulaire est enlevé, les cellules sont traitées par une solution de trypsine- EDTA (Pan Biotech) à une concentration finale de 0,05% trypsine et de 0,02% EDTA. Ensuite les cellules sont congelées afin de constituer une lignée cellulaire d'astrocytes.
Les astrocytes (au stade : P4) sont ensemencées à une densité de 4 000 par puits d'une plaque de 96 puits avec de l'acide léontopodique B1 (dissous à différentes concentrations : 100 nM, 1 µM, 10 µM et 50 µM dans le milieu de culture) et sont cultivées à 37°C dans un incubateur contenant 95% d'air et 5% de CO2. Le milieu est changé tous les jours. Les astrocytes sont cultivés pendant 4 jours en présence d'acide léontopodique B1 avant de mesurer son effet sur la prolifération des astrocytes. […]

[3] = test system: réseau de neurites de neurones corticaux primaires; experiment: Neurite network of primary cortical neurons intoxicated with Aβ 1-42 peptide (MAP-2 staining); assay type: cell-based, rat; conditions: two lowest concentrations 10 nM, 100 nM; pre-incubated 1 h before Aβ 1-42 20 µM, 24 h (Figure 2)
Source text: as §1, §2, §3

**Q.** `O=C(/C=C/c1ccc(O)c(O)c1)OC(C(=O)O)C(OC(=O)/C=C/c1ccc(O)c(O)c1)C(OC(=O)/C=C/c1ccc(O)c(O)c1)C(O)C(=O)O` (stereo not shown) [acide léontopodique B1, acide 3,4,5-tricaféoylhexarique] was tested. Which “effet sur la survie des astrocytes” value (astrocytes; all concentrations (10 nM to 10 µM)) did it give?
**A.** The value was “effet protecteur”.

**Q.** And the “mort cellulaire (astrocytes)” value (astrocytes; three highest concentrations 100 nM, 1 µM, 10 µM)?
**A.** The value was “Aucune mort cellulaire n'a été observée”.

**Q.** What about the “effet sur la survie des neurones” value ([1]; 10 nM, 100 nM, 1 µM, 10 µM, 24 h, protective effect follows a bell-shaped curve (Figure 1)) of the same molecule?
**A.** Its value is “effet significatif et important”.

**Q.** And the mort neuronale ([1]; 100 nM and 1 µM, 24 h (Figure 1))?
**A.** Its mort neuronale is “aucune mort neuronale n'a été observée”.

**Q.** And the “effet sur la prolifération des astrocytes” value ([2]; 100 nM up to 50 µM)?
**A.** The value was “aucun effet significatif”.

**Q.** What about the concentration cellulaire ([2]; highest concentration 50 µM) of the same molecule?
**A.** Its concentration cellulaire is “légère mais non significative diminution”.

**Q.** What about the “effet sur le réseau de neurites” value [3] of the same molecule?
**A.** The value was “effet significatif et important”.

— patent EP3544951B1, “SUBSTITUTED HEXARIC ACID DERIVATIVES AND USES THEREOF” (Plant Advanced Technologies Pat, priority 2016, dated 2018)
